# Laboratory results from US8084649B2, “Herbicides” (Syngenta Crop Protection, inc., priority 2007, dated 2011).
# Tested on: Digitaria sanguinalis (DIGSA)
# Assay: Pre-emergence herbicidal activity, glasshouse pot test
# Format: in vivo
# Conditions: Digitaria sanguinalis, 480 h, rate 500 g/ha, evaluated after 20 days, read-out: Pre-emergence activity, DIGSA (100=total damage to plant; 0=no damage to plant)
# Method: (§1) Monocotyledonous and dicotyledonous test plants were sown in sterilised standard soil in pots. After cultivation for one day (pre-emergence) or after 10 days cultivation (post-emergence) under controlled conditions in a glasshouse, the plants were sprayed with an aqueous spray solution derived from the formulation of the technical active ingredient in 0.6 ml acetone and 45 ml formulation solution containing 10.6% Emulsogen EL (Registry number 61791-12-6), 42.2% N-methylpyrrolidone, 42.2% dipropylene glycol monomethyl ether (Registry number 34590-94-8) and 0.2% X-77 (Registry number 11097-66-8). The test plants were then grown in a greenhouse under optimum conditions until, 14 or 15 days later for post-emergence and 20 days for pre-emergence, the test was evaluated (100=total damage to plant; 0=no damage to plant). Alopecurus myosuroides (ALOMY), Avena fatua (AVEFA), Lolium perenne (LOLPE), Setaria faberi (SETFA), Digitaria sanguinalis (DIGSA), Echinochloa crus-galli (ECHCG) Pre-Emergence Activity
row,Structure (SMILES),pest or weed control at 500 g/ha
1,CCc1cc(C)cc(CC)c1C1=C(OC(=O)C(C)C)CC2(CCOCC2)CC1=O [Compound P3],100%
2,"CCSC(C)CC1CC(=O)C(c2c(CC)cc(C)cc2CC)=C(O)C1 (stereo not drawn) [Compound T7, 2-(2,6-diethyl-4-methylphenyl)-5-[2-(ethylthio)propyl]cyclohexane-1,3-dione]",100%
3,CCc1cc(C)cc(CC)c1C1=C(OC(=O)C2CC2)CC2(CCOCC2)CC1=O [Compound P9],100%

# Tested on: Lolium perenne (LOLPE)
# Assay: as above
# Format: in vivo
# Conditions: Lolium perenne, 480 h, rate 500 g/ha, evaluated after 20 days, read-out: Pre-emergence activity, LOLPE (100=total damage to plant; 0=no damage to plant)
# Method: as §1
row,Structure (SMILES),pest or weed control at 500 g/ha
1,CCc1cc(C)cc(CC)c1C1=C(OC(=O)C(C)C)CC2(CCOCC2)CC1=O [Compound P3],100%
2,"CCSC(C)CC1CC(=O)C(c2c(CC)cc(C)cc2CC)=C(O)C1 (stereo not drawn) [Compound T7, 2-(2,6-diethyl-4-methylphenyl)-5-[2-(ethylthio)propyl]cyclohexane-1,3-dione]",100%
3,CCc1cc(C)cc(CC)c1C1=C(OC(=O)C2CC2)CC2(CCOCC2)CC1=O [Compound P9],100%

# Tested on: Avena fatua (AVEFA)
# Assay: as above
# Format: in vivo
# Conditions: Avena fatua, 480 h, rate 500 g/ha, evaluated after 20 days, read-out: Pre-emergence activity, AVEFA (100=total damage to plant; 0=no damage to plant)
# Method: as §1
row,Structure (SMILES),pest or weed control at 500 g/ha
1,CCc1cc(C)cc(CC)c1C1=C(OC(=O)C(C)C)CC2(CCOCC2)CC1=O [Compound P3],100%
2,"CCSC(C)CC1CC(=O)C(c2c(CC)cc(C)cc2CC)=C(O)C1 (stereo not drawn) [Compound T7, 2-(2,6-diethyl-4-methylphenyl)-5-[2-(ethylthio)propyl]cyclohexane-1,3-dione]",100%
3,CCc1cc(C)cc(CC)c1C1=C(OC(=O)C2CC2)CC2(CCOCC2)CC1=O [Compound P9],100%

# Tested on: Echinochloa crus-galli (ECHCG)
# Assay: as above
# Format: in vivo
# Conditions: Echinochloa crus-galli, 480 h, rate 500 g/ha, evaluated after 20 days, read-out: Pre-emergence activity, ECHCG (100=total damage to plant; 0=no damage to plant)
# Method: as §1
row,Structure (SMILES),pest or weed control at 500 g/ha
1,CCc1cc(C)cc(CC)c1C1=C(OC(=O)C(C)C)CC2(CCOCC2)CC1=O [Compound P3],100%
2,"CCSC(C)CC1CC(=O)C(c2c(CC)cc(C)cc2CC)=C(O)C1 (stereo not drawn) [Compound T7, 2-(2,6-diethyl-4-methylphenyl)-5-[2-(ethylthio)propyl]cyclohexane-1,3-dione]",100%
3,CCc1cc(C)cc(CC)c1C1=C(OC(=O)C2CC2)CC2(CCOCC2)CC1=O [Compound P9],100%

# Tested on: Alopecurus myosuroides (ALOMY)
# Assay: as above
# Format: in vivo
# Conditions: Alopecurus myosuroides, 480 h, rate 500 g/ha, evaluated after 20 days, read-out: Pre-emergence activity, ALOMY (100=total damage to plant; 0=no damage to plant)
# Method: as §1
row,Structure (SMILES),pest or weed control at 500 g/ha
1,CCc1cc(C)cc(CC)c1C1=C(OC(=O)C(C)C)CC2(CCOCC2)CC1=O [Compound P3],100%
2,"CCSC(C)CC1CC(=O)C(c2c(CC)cc(C)cc2CC)=C(O)C1 (stereo not drawn) [Compound T7, 2-(2,6-diethyl-4-methylphenyl)-5-[2-(ethylthio)propyl]cyclohexane-1,3-dione]",100%
3,CCc1cc(C)cc(CC)c1C1=C(OC(=O)C2CC2)CC2(CCOCC2)CC1=O [Compound P9],100%

# Tested on: Setaria faberi (SETFA)
# Assay: as above
# Format: in vivo
# Conditions: Setaria faberi, 480 h, rate 500 g/ha, evaluated after 20 days, read-out: Pre-emergence activity, SETFA (100=total damage to plant; 0=no damage to plant)
# Method: as §1
row,Structure (SMILES),pest or weed control at 500 g/ha
1,CCc1cc(C)cc(CC)c1C1=C(OC(=O)C(C)C)CC2(CCOCC2)CC1=O [Compound P3],100%
2,"CCSC(C)CC1CC(=O)C(c2c(CC)cc(C)cc2CC)=C(O)C1 (stereo not drawn) [Compound T7, 2-(2,6-diethyl-4-methylphenyl)-5-[2-(ethylthio)propyl]cyclohexane-1,3-dione]",100%
3,CCc1cc(C)cc(CC)c1C1=C(OC(=O)C2CC2)CC2(CCOCC2)CC1=O [Compound P9],100%

# Tested on: Digitaria sanguinalis (DIGSA)
# Assay: Post-emergence herbicidal activity, glasshouse pot test
# Format: in vivo
# Conditions: Digitaria sanguinalis, rate 125 g/ha, evaluated after 14 or 15 days, read-out: Post-emergence activity, DIGSA (100=total damage to plant; 0=no damage to plant)
# Method: as §1, with “Post-Emergence” for “Pre-Emergence”
row,Structure (SMILES),pest or weed control at 125 g/ha
1,CCc1cc(C)cc(CC)c1C1=C(OC(=O)C(C)C)CC2(CCOCC2)CC1=O [Compound P3],90%
2,CCc1cc(C)cc(CC)c1C1=C(OC(=O)C2CC2)CC2(CCOCC2)CC1=O [Compound P9],90%

# Same assay, conditions: Digitaria sanguinalis, rate 500 g/ha, evaluated after 14 or 15 days, read-out: Post-emergence activity, DIGSA (100=total damage to plant; 0=no damage to plant)
row,Structure (SMILES),pest or weed control at 500 g/ha
1,"CCSC(C)CC1CC(=O)C(c2c(CC)cc(C)cc2CC)=C(O)C1 (stereo not drawn) [Compound T7, 2-(2,6-diethyl-4-methylphenyl)-5-[2-(ethylthio)propyl]cyclohexane-1,3-dione]",90%

# Tested on: Lolium perenne (LOLPE)
# Assay: as above
# Format: in vivo
# Conditions: Lolium perenne, rate 125 g/ha, evaluated after 14 or 15 days, read-out: Post-emergence activity, LOLPE (100=total damage to plant; 0=no damage to plant)
# Method: as §1, with “Post-Emergence” for “Pre-Emergence”
row,Structure (SMILES),pest or weed control at 125 g/ha
1,CCc1cc(C)cc(CC)c1C1=C(OC(=O)C(C)C)CC2(CCOCC2)CC1=O [Compound P3],100%
2,CCc1cc(C)cc(CC)c1C1=C(OC(=O)C2CC2)CC2(CCOCC2)CC1=O [Compound P9],90%

# Same assay, conditions: Lolium perenne, rate 500 g/ha, evaluated after 14 or 15 days, read-out: Post-emergence activity, LOLPE (100=total damage to plant; 0=no damage to plant)
row,Structure (SMILES),pest or weed control at 500 g/ha
1,"CCSC(C)CC1CC(=O)C(c2c(CC)cc(C)cc2CC)=C(O)C1 (stereo not drawn) [Compound T7, 2-(2,6-diethyl-4-methylphenyl)-5-[2-(ethylthio)propyl]cyclohexane-1,3-dione]",100%

# Tested on: Avena fatua (AVEFA)
# Assay: as above
# Format: in vivo
# Conditions: Avena fatua, rate 125 g/ha, evaluated after 14 or 15 days, read-out: Post-emergence activity, AVEFA (100=total damage to plant; 0=no damage to plant)
# Method: as §1, with “Post-Emergence” for “Pre-Emergence”
row,Structure (SMILES),pest or weed control at 125 g/ha
1,CCc1cc(C)cc(CC)c1C1=C(OC(=O)C(C)C)CC2(CCOCC2)CC1=O [Compound P3],100%
2,CCc1cc(C)cc(CC)c1C1=C(OC(=O)C2CC2)CC2(CCOCC2)CC1=O [Compound P9],100%

# Same assay, conditions: Avena fatua, rate 500 g/ha, evaluated after 14 or 15 days, read-out: Post-emergence activity, AVEFA (100=total damage to plant; 0=no damage to plant)
row,Structure (SMILES),pest or weed control at 500 g/ha
1,"CCSC(C)CC1CC(=O)C(c2c(CC)cc(C)cc2CC)=C(O)C1 (stereo not drawn) [Compound T7, 2-(2,6-diethyl-4-methylphenyl)-5-[2-(ethylthio)propyl]cyclohexane-1,3-dione]",90%

# Tested on: Echinochloa crus-galli (ECHCG)
# Assay: as above
# Format: in vivo
# Conditions: Echinochloa crus-galli, rate 125 g/ha, evaluated after 14 or 15 days, read-out: Post-emergence activity, ECHCG (100=total damage to plant; 0=no damage to plant)
# Method: as §1, with “Post-Emergence” for “Pre-Emergence”
row,Structure (SMILES),pest or weed control at 125 g/ha
1,CCc1cc(C)cc(CC)c1C1=C(OC(=O)C(C)C)CC2(CCOCC2)CC1=O [Compound P3],100%
2,CCc1cc(C)cc(CC)c1C1=C(OC(=O)C2CC2)CC2(CCOCC2)CC1=O [Compound P9],100%

# Same assay, conditions: Echinochloa crus-galli, rate 500 g/ha, evaluated after 14 or 15 days, read-out: Post-emergence activity, ECHCG (100=total damage to plant; 0=no damage to plant)
row,Structure (SMILES),pest or weed control at 500 g/ha
1,"CCSC(C)CC1CC(=O)C(c2c(CC)cc(C)cc2CC)=C(O)C1 (stereo not drawn) [Compound T7, 2-(2,6-diethyl-4-methylphenyl)-5-[2-(ethylthio)propyl]cyclohexane-1,3-dione]",90%

# Tested on: Alopecurus myosuroides (ALOMY)
# Assay: as above
# Format: in vivo
# Conditions: Alopecurus myosuroides, rate 125 g/ha, evaluated after 14 or 15 days, read-out: Post-emergence activity, ALOMY (100=total damage to plant; 0=no damage to plant)
# Method: as §1, with “Post-Emergence” for “Pre-Emergence”
row,Structure (SMILES),pest or weed control at 125 g/ha
1,CCc1cc(C)cc(CC)c1C1=C(OC(=O)C(C)C)CC2(CCOCC2)CC1=O [Compound P3],100%
2,CCc1cc(C)cc(CC)c1C1=C(OC(=O)C2CC2)CC2(CCOCC2)CC1=O [Compound P9],80%

# Same assay, conditions: Alopecurus myosuroides, rate 500 g/ha, evaluated after 14 or 15 days, read-out: Post-emergence activity, ALOMY (100=total damage to plant; 0=no damage to plant)
row,Structure (SMILES),pest or weed control at 500 g/ha
1,"CCSC(C)CC1CC(=O)C(c2c(CC)cc(C)cc2CC)=C(O)C1 (stereo not drawn) [Compound T7, 2-(2,6-diethyl-4-methylphenyl)-5-[2-(ethylthio)propyl]cyclohexane-1,3-dione]",100%

# Tested on: Setaria faberi (SETFA)
# Assay: as above
# Format: in vivo
# Conditions: Setaria faberi, rate 125 g/ha, evaluated after 14 or 15 days, read-out: Post-emergence activity, SETFA (100=total damage to plant; 0=no damage to plant)
# Method: as §1, with “Post-Emergence” for “Pre-Emergence”
row,Structure (SMILES),pest or weed control at 125 g/ha
1,CCc1cc(C)cc(CC)c1C1=C(OC(=O)C(C)C)CC2(CCOCC2)CC1=O [Compound P3],90%
2,CCc1cc(C)cc(CC)c1C1=C(OC(=O)C2CC2)CC2(CCOCC2)CC1=O [Compound P9],90%

# Same assay, conditions: Setaria faberi, rate 500 g/ha, evaluated after 14 or 15 days, read-out: Post-emergence activity, SETFA (100=total damage to plant; 0=no damage to plant)
row,Structure (SMILES),pest or weed control at 500 g/ha
1,"CCSC(C)CC1CC(=O)C(c2c(CC)cc(C)cc2CC)=C(O)C1 (stereo not drawn) [Compound T7, 2-(2,6-diethyl-4-methylphenyl)-5-[2-(ethylthio)propyl]cyclohexane-1,3-dione]",100%
